Patent publication USRE48097E1, “Cephem compounds, their production and use” (priority 2015, dated 2020)
In brackets after ≈: the same amount, converted by molar mass.

Key:
E. coli 4103 = assay: MIC against E. coli 4103; type: cell-based; settings: Table 3, E. coli 4103, KPC-2, TEM-1, CMY-type
Method: (§1) As shown, the foregoing composition was tested for minimum inhibitory concentration (MIC, μg/mL) against bacteria listed in Tables 2-3.

K. baumanii 4095 = assay: MIC against K. baumanii 4095; type: cell-based; settings: Table 2, K. baumanii 4095, OXA-48
Excerpt: (§2) Without limitation, the present cephem compounds alone, or in combination with one or more β-lactamase inhibitors, may provide improved antibacterial efficacy, particularly in antibiotic-resistant bacterial strains. It is believed that the present compounds may be structurally different from known compounds and, as a result, may be more basic in nature. It is an advantage that the present compounds may extend the spectrum of effective bacterial compounds, particularly against previously-resistant bacteria (e.g. ESKAPE organisms), and/or gram negative bacteria, without significant side effects. In a preferred embodiment, the present cephem compound may comprise reference compound ceftazidime, which may be used alone, or in combination with one or more β-lactamase inhibitors, such as NXL-104. As shown, the foregoing composition was tested for minimum inhibitory concentration (MIC, μg/mL) against bacteria listed in Tables 2-3.

C. freundii 2487 = assay: MIC against C. freundii 2487; type: cell-based; settings: Table 2, C. freundii 2487, Caz R, IMP S
Excerpt: as §2

E. cloacae 552 = assay: MIC against E. cloacae 552; type: cell-based; settings: Table 2, E. cloacae 552, Caz S, IMP S
Excerpt: as §2

K. pneumoniae 2697 = assay: MIC against K. pneumoniae 2697; type: cell-based; settings: Table 2, K. pneumoniae 2697, IMP-4
Excerpt: as §2

S. aureus3137 = assay: MIC against S. aureus3137; type: cell-based, S. aureus; settings: Table 2, S. aureus3137, MSSA
Excerpt: as §2

E. coli 4101 = assay: MIC against E. coli 4101; type: cell-based; settings: Table 2, E. coli 4101, CTX-M-14, TEM-1
Excerpt: as §2

K. baumanii 4091 = assay: MIC against K. baumanii 4091; type: cell-based; settings: Table 2, K. baumanii 4091, OXA-23
Excerpt: as §2

K. pneumoniae 4088 = assay: MIC against K. pneumoniae 4088; type: cell-based; settings: Table 3, K. pneumoniae 4088, KPC-3
Method: as §1

E. coli 2671 = assay: MIC against E. coli 2671; type: cell-based; settings: Table 2, E. coli 2671, VIM-19
Excerpt: as §2

E. cloacae 2689 = assay: MIC against E. cloacae 2689; type: cell-based; settings: Table 3, E. cloacae 2689, KPC-2
Method: as §1

P. aeruginosa 2686 = assay: MIC against P. aeruginosa 2686; type: cell-based; settings: Table 3, P. aeruginosa 2686, KPC-2
Method: as §1

E. cloacae596 = assay: MIC against E. cloacae596; type: cell-based, E. cloacae; settings: Table 2, E. cloacae596, Caz R, IMP S
Excerpt: as §2

K. pneumoniae 4107 = assay: MIC against K. pneumoniae 4107; type: cell-based; settings: K. pneumoniae 4107, KPC-2, TEM-1, SHV-11
Method: as §1

E. cloacae 2706 = assay: MIC against E. cloacae 2706; type: cell-based; settings: Table 3, E. cloacae 2706, VIM-1, KPC-3
Method: as §1

S. pneumoniae 2403 = assay: MIC against S. pneumoniae 2403; type: cell-based; settings: Table 2, S. pneumoniae 2403, Pen S
Excerpt: as §2

K. baumanii 4094 = assay: MIC against K. baumanii 4094; type: cell-based; settings: Table 2, K. baumanii 4094, OXA-51
Excerpt: as §2

K. pneumoniae 4104 = assay: MIC against K. pneumoniae 4104; type: cell-based; settings: K. pneumoniae 4104, KPC-3, TEM-1
Method: as §1

P. aeruginosa 2573 = assay: MIC against P. aeruginosa 2573; type: cell-based; settings: Table 2, P. aeruginosa 2573, OXA-10 (Class D)
Excerpt: as §2

E. coli 2668 = assay: MIC against E. coli 2668; type: cell-based; settings: Table 2, E. coli 2668, OXA-48
Excerpt: as §2

C. freundii 15 = assay: MIC against C. freundii 15; type: cell-based; settings: Table 2, C. freundii 15, Caz R, IMP S
Excerpt: as §2

E. coli 2666 = assay: MIC against E. coli 2666; type: cell-based; settings: Table 3, E. coli 2666, KPC-2
Method: as §1

K. pneumoniae 2689 = assay: MIC against K. pneumoniae 2689; type: cell-based; settings: K. pneumoniae 2689, KPC-2
Method: as §1

S. pneumoniae 2389 = assay: MIC against S. pneumoniae 2389; type: cell-based; settings: Table 2, S. pneumoniae 2389, Pen R
Excerpt: as §2

[1] = Table 2, in combination with NXL-104
[2] = Table 3, in combination with NXL-104

Question: For `CC(C)(O/N=C(\C(=O)N[C@@H]1C(=O)N2C(C(=O)[O-])=C(C[n+]3ccccc3)CS[C@H]12)c1csc(N)n1)C(=O)O` [CAZ, ceftazidime, reference compound], which MIC (E. coli 4103; alone) is on record?
Answer: >32 µg/mL

Question: What about the MIC (E. coli 4103; in combination with NXL-104) of the same molecule?
Answer: 16 µg/mL

Question: And the MIC (K. baumanii 4095; alone)?
Answer: 0.50 µg/mL

Question: What about the MIC (K. baumanii 4095; in combination with NXL-104) of the same molecule?
Answer: 0.50 µg/mL

Question: And the MIC (C. freundii 2487; alone)?
Answer: 16.00 µg/mL

Question: What about the MIC (C. freundii 2487; in combination with NXL-104) of the same molecule?
Answer: 8.00 µg/mL

Question: What about the MIC (E. cloacae 552; alone) of the same molecule?
Answer: 0.50 µg/mL

Question: What about the MIC (E. cloacae 552; in combination with NXL-104) of the same molecule?
Answer: 0.25 µg/mL

Question: What about the MIC (K. pneumoniae 2697; alone) of the same molecule?
Answer: 8.00 µg/mL

Question: What about the MIC (K. pneumoniae 2697; in combination with NXL-104) of the same molecule?
Answer: 2.00 µg/mL

Question: And the MIC (S. aureus3137; alone)?
Answer: 32.00 µg/mL

Question: What about the MIC (S. aureus3137; in combination with NXL-104) of the same molecule?
Answer: 32.00 µg/mL

Question: What about the MIC (E. coli 4101; alone) of the same molecule?
Answer: 0.50 µg/mL

Question: What about the MIC (E. coli 4101; in combination with NXL-104) of the same molecule?
Answer: 0.25 µg/mL

Question: And the MIC (K. baumanii 4091; alone)?
Answer: >32 µg/mL

Question: And the MIC (K. baumanii 4091; in combination with NXL-104)?
Answer: 16.00 µg/mL

Question: And the MIC (K. pneumoniae 4088; alone)?
Answer: >32 µg/mL

Question: What about the MIC (K. pneumoniae 4088; in combination with NXL-104) of the same molecule?
Answer: 8 µg/mL

Question: And the MIC (E. coli 2671; alone)?
Answer: 32.00 µg/mL

Question: What about the MIC (E. coli 2671; in combination with NXL-104) of the same molecule?
Answer: 32.00 µg/mL

Question: And the MIC (E. cloacae 2689; alone)?
Answer: >32 µg/mL

Question: What about the MIC (E. cloacae 2689; in combination with NXL-104) of the same molecule?
Answer: 2 µg/mL

Question: What about the MIC (P. aeruginosa 2686; alone) of the same molecule?
Answer: >32 µg/mL

Question: What about the MIC (P. aeruginosa 2686; in combination with NXL-104) of the same molecule?
Answer: 16 µg/mL

Question: And the MIC (E. cloacae596; alone)?
Answer: 4.00 µg/mL

Question: What about the MIC (E. cloacae596; in combination with NXL-104) of the same molecule?
Answer: 1.00 µg/mL

Question: And the MIC (K. pneumoniae 4107; Table 2, alone)?
Answer: 32.00 µg/mL (≈ 58.5 µM)

Question: And the MIC (K. pneumoniae 4107; [1])?
Answer: 8.00 µg/mL

Question: What about the MIC (K. pneumoniae 4107; Table 3, alone) of the same molecule?
Answer: >32 µg/mL

Question: And the MIC (K. pneumoniae 4107; [2])?
Answer: 4 µg/mL

Question: What about the MIC (E. cloacae 2706; alone) of the same molecule?
Answer: >32 µg/mL

Question: What about the MIC (E. cloacae 2706; in combination with NXL-104) of the same molecule?
Answer: 32 µg/mL

Question: What about the MIC (S. pneumoniae 2403; alone) of the same molecule?
Answer: 0.12 µg/mL

Question: And the MIC (S. pneumoniae 2403; in combination with NXL-104)?
Answer: 0.12 µg/mL

Question: What about the MIC (K. baumanii 4094; alone) of the same molecule?
Answer: >32 µg/mL

Question: What about the MIC (K. baumanii 4094; in combination with NXL-104) of the same molecule?
Answer: 32.00 µg/mL

Question: What about the MIC (K. pneumoniae 4104; Table 2, alone) of the same molecule?
Answer: 32.00 µg/mL (≈ 58.5 µM)

Question: What about the MIC (K. pneumoniae 4104; [1]) of the same molecule?
Answer: 8.00 µg/mL

Question: And the MIC (K. pneumoniae 4104; Table 3, alone)?
Answer: >32 µg/mL

Question: What about the MIC (K. pneumoniae 4104; [2]) of the same molecule?
Answer: 2 µg/mL

Question: And the MIC (P. aeruginosa 2573; alone)?
Answer: 8.00 µg/mL

Question: What about the MIC (P. aeruginosa 2573; in combination with NXL-104) of the same molecule?
Answer: 8.00 µg/mL

Question: And the MIC (E. coli 2668; alone)?
Answer: 1.00 µg/mL

Question: And the MIC (E. coli 2668; in combination with NXL-104)?
Answer: 0.50 µg/mL

Question: What about the MIC (C. freundii 15; alone) of the same molecule?
Answer: 8.00 µg/mL

Question: What about the MIC (C. freundii 15; in combination with NXL-104) of the same molecule?
Answer: 2.00 µg/mL

Question: And the MIC (E. coli 2666; alone)?
Answer: >32 µg/mL

Question: What about the MIC (E. coli 2666; in combination with NXL-104) of the same molecule?
Answer: 4 µg/mL

Question: And the MIC (K. pneumoniae 2689; Table 2, alone)?
Answer: 32.00 µg/mL (≈ 58.5 µM)

Question: What about the MIC (K. pneumoniae 2689; [1]) of the same molecule?
Answer: 4.00 µg/mL

Question: What about the MIC (K. pneumoniae 2689; Table 3, alone) of the same molecule?
Answer: >32 µg/mL

Question: And the MIC (K. pneumoniae 2689; [2])?
Answer: 4 µg/mL

Question: What about the MIC (S. pneumoniae 2389; alone) of the same molecule?
Answer: 16.00 µg/mL

Question: What about the MIC (S. pneumoniae 2389; in combination with NXL-104) of the same molecule?
Answer: 16.00 µg/mL
